# Data taken from ChEMBL document CHEMBL2010699, “Novel substituted 9-norbornylpurines and their activities against RNA viruses” (Bioorg Med Chem Lett, 2012).
# Active and inactive are the calls of the source. The rule behind the calls is not given here.
# Key:
# [1] = tested on: Hepatitis C virus; assay: Antiviral activity against Hepatitis C virus assessed as suppression of viral replication; format: functional, organism-based; details: Hepacivirus hominis
# [2] = Cytotoxicity against african green monkey Vero cells assessed as inhibition of host metabolism by MTS assay; format: cell-based; details: chlorocebus sabaeus
# [3] = tested on: Chikungunya virus; assay: Antiviral activity against Chikungunya virus assessed as suppression of viral replication; format: functional
# [4] = tested on: Coxsackievirus B3; assay: Antiviral activity against Coxsackievirus B3 infected in african green monkey Vero cells assessed as inhibition virus-induced cell death by MTS assay; format: functional, organism-based; details: Enterovirus B
# [5] = tested on: Coxsackievirus B3; assay: Antiviral activity against Coxsackievirus B3 infected in african green monkey vero cells assessed as inhibition of virus-induced cytopathic effect by microscopic estimation; format: functional, organism-based
# [6] = Selectivity index, ratio of CC50 for african green monkey Vero cells to EC50 for Coxsackievirus B3; format: toxicity, cell-based; details: read-out: Ratio CC50/EC50
# [7] = tested on: Vero; assay: Cytotoxicity against african green monkey Vero cells assessed as change in morphology of the cells by microscopic analysis; format: cell-based; details: chlorocebus sabaeus
# [8] = Solubility of the compound in water at 20 degC by UV spectrophotometry; format: physicochemical
SMILES,Activity [1],CC50 [2] [µM],Activity [3],EC50 [4] [µM],EC90 [4] [µM],Activity [5],selectivity ratio [6],Activity [7],solubility [8] [µg/mL]
OCCO[C@H]1C[C@H]2C[C@@H]1[C@H](n1cnc3c(Cl)ncnc31)C2 (relative stereo),inactive,> 648,inactive,29,37,Active,> 22,Non-toxic,
CCCCCCO[C@H]1C[C@H]2C[C@@H]1C[C@@H]2n1cnc2c(Cl)ncnc21 (relative stereo),inactive,27,inactive,> 27,> 27,,< 1,,
OCCCCO[C@H]1C[C@H]2C[C@@H]1C[C@@H]2n1cnc2c(Cl)ncnc21 (relative stereo),inactive,> 594,inactive,37,53,Active,> 16,Non-toxic,
Clc1ncnc2c1ncn2[C@H]1C[C@H]2C[C@@H]1C[C@@H]2Oc1ccccc1 (relative stereo),inactive,50,inactive,> 50,> 50,,< 1,,
OCCOCCO[C@H]1C[C@H]2C[C@@H]1C[C@@H]2n1cnc2c(Cl)ncnc21 (relative stereo),inactive,> 567,inactive,42,60,Active,> 14,Non-toxic,7460
Oc1ccc(O[C@H]2C[C@H]3C[C@@H]2C[C@@H]3n2cnc3c(Cl)ncnc32)cc1 (relative stereo),inactive,217,inactive,58,,,3.7,,
CCCCCCCCCC(=O)O[C@H]1C[C@H]2C[C@@H]1[C@H](n1cnc3c(Cl)ncnc31)C2 (relative stereo),inactive,44,inactive,> 44,> 44,,< 1,,
OCCCCCO[C@H]1C[C@H]2C[C@@H]1C[C@@H]2n1cnc2c(Cl)ncnc21 (relative stereo),inactive,> 570,inactive,22,30,Active,> 26,Non-toxic,
CCCCCC(=O)O[C@H]1C[C@H]2C[C@@H]1C[C@@H]2n1cnc2c(Cl)ncnc21 (relative stereo),inactive,60,inactive,34,56,Active,1.8,Non-toxic,
CCCCCC(=O)O[C@H]1C[C@H]2C[C@@H]1[C@H](n1cnc3c(Cl)ncnc31)C2 (relative stereo),inactive,70,inactive,> 70,> 70,,< 1,,
OCCO[C@H]1C[C@H]2C[C@@H]1C[C@@H]2n1cnc2c(Cl)ncnc21 (relative stereo),inactive,> 648,inactive,37,,Active,> 18,Non-toxic,
CO[C@H]1C[C@H]2C[C@@H]1C[C@@H]2n1cnc2c(Cl)ncnc21 (relative stereo),inactive,> 718,inactive,27,37,Active,> 27,Non-toxic,
O=C(OC1CC2CC1CC2n1cnc2c(Cl)ncnc21)c1ccccc1 (stereo unspecified),inactive,> 542,inactive,> 150,> 150,,,,
Clc1ncnc2c1ncn2[C@H]1C[C@H]2C[C@@H]1C[C@@H]2OC1CCCCC1 (relative stereo),inactive,22,inactive,> 22,> 22,,< 1,,
CCCCCCCC(=O)O[C@H]1C[C@H]2C[C@@H]1[C@H](n1cnc3c(Cl)ncnc31)C2 (relative stereo),inactive,50,inactive,> 50,> 50,,< 1,,
Clc1ncnc2c1ncn2C1CC2CCC1C2 (stereo unspecified),,,,,,,,,530
OCCO[C@@H]1C[C@H]2C[C@@H]1[C@H](n1cnc3c(Cl)ncnc31)C2 (relative stereo),inactive,> 648,inactive,13,22,Active,> 50,Non-toxic,4690
Clc1ncnc2c1ncn2[C@@H]1C[C@@H]2C[C@H]1[C@@H](Oc1ccccc1)C2 (relative stereo),inactive,> 587,inactive,> 150,> 150,,,,
CCCCCCCCCC(=O)O[C@H]1C[C@H]2C[C@@H]1C[C@@H]2n1cnc2c(Cl)ncnc21 (relative stereo),inactive,47,inactive,32,> 47,Active,1.5,Non-toxic,
CCCCCCCC(=O)O[C@H]1C[C@H]2C[C@@H]1C[C@@H]2n1cnc2c(Cl)ncnc21 (relative stereo),inactive,52,inactive,> 52,> 52,,< 1,,
C[C@@]1(O)[C@H](O)[C@@H](CO)O[C@H]1n1ccc(N)nc1=O,,,,94,179,,,,
O=C(OC1CC2CC1C(n1cnc3c(Cl)ncnc31)C2)c1ccccc1 (stereo unspecified),inactive,45,inactive,35,> 45,,1.3,,
OCCCO[C@H]1C[C@H]2C[C@@H]1C[C@@H]2n1cnc2c(Cl)ncnc21 (relative stereo),inactive,> 620,inactive,47,,Active,> 13,Non-toxic,
CCCCCO[C@H]1C[C@H]2C[C@@H]1C[C@@H]2n1cnc2c(Cl)ncnc21 (relative stereo),inactive,32,inactive,21,> 32,,1.5,,
OCCO[C@@H]1C[C@H]2C[C@@H]1C[C@@H]2n1cnc2c(Cl)ncnc21 (relative stereo),inactive,> 648,inactive,16,32,Active,> 41,Non-toxic,4570
